One assay deals with human Hsp90α (Homo sapiens, UniProt P07900). The assay is described as follows: Hsp90α binding, SPA competition with [allyl-3H]-17-AAG. Particulars: for Kd: biotinylated Hsp90α on streptavidin beads, competition with [allyl-3H]-17-AAG, 2-4 h room temperature, pH 7.0, read-out: Hsp90α Binding (Kd (μM)). The source says:
Truncated (Carreras et al. Anal. Biochem. 2003, 317, 40-46) and full-length forms of human Hsp90 were expressed in E. coli with N-terminal polyHis and biotinylation recognition sequence (BRS) tags to facilitate purification and SPA assay, respectively. […] The 3′ end of the gene contained a BamHI site, adding a single proline residue to the C-terminus. The tagged full-length protein was cloned into pET21d as described for the tagged N-domain of Hsp90 (Carreras et al., cited supra), and co-expressed with biotin ligase encoded by pBIRAcm (Avidity, Denver, Colo.) in Escherichia coli BL21DE(3).
Biotinylated Hsp90α was added to a 1 mg/mL suspension of streptavidin coated YiSi beads (Pharmacia RPNQ0012; 219 pmol streptavidin/mg) in Binding Buffer (10 mM Tris-HCl, 5 mM MgCl2, pH 7.0) to obtain a final concentration of 225 nM. […] Reaction mixtures were incubated for 2˜4 h at room temperature in 96-well assay plates, then signals for each reaction were measured using a Wallac Microbeta scintillation counter. The resulting data was fit to a competitive binding equation (Segal, I. H., Enzyme Kinetics: Behavior and analysis of rapid equilibrium and steady-state enzyme systems; Wiley Interscience: New York, 1975).

The next assay has as its system SKBr3 cells. The assay is described as follows: cells. The conditions noted are these: read-out: Cytotoxicity, SKBr3 Cells (IC50 (nM)). The format is cell-based, human. The method, then: The human breast cancer cell line SKBr3 was obtained from the American Type Culture Collection (Manassas, Va.) and maintained in McCoy's 5A modified medium (Invitrogen; Carlsbad, Calif.) supplemented with 10% fetal bovine serum (FBS) (Hyclone; Logan, Utah) and 2 mM glutamine, in humidified air with 5% CO2 at 37° C.
Cells were seeded in duplicate in 96-well black tissue culture microtiter plates at ˜4000 cells per well and allowed to attach overnight. Serial 10-fold dilutions of compounds were added, and the cells were incubated for 72 h. Cell viability was determined using the CellTiter-Glo™ Luminescent Cell Viability Assay (Promega; Madison, Wis.). IC50 is defined as the concentration of drug required for inhibiting cell growth by 50%.

[1] abbreviates: SK-BR-3, human breast cancer cell line SKBr3, 72 h incubation, concentration inhibiting cell growth by 50%.

SMILES strings stand for the structures. pKd: −log10 of the molar value. Like-named read-outs stand apart in the source and are kept apart here.

A word on the Kd: it is a measure of binding affinity in units of concentration. What is called IC50 is the midpoint of a concentration-inhibition curve. In the case of `CO[C@H]1/C=C\C=C(/C)C(=O)NC2=CC(=O)C(NCCC(=O)O)=C(C[C@@H](C)C[C@H](OC)[C@H](O)[C@@H](C)/C=C(\C)[C@@H]1OC(N)=O)C2=O` [Compound 7], the Kd on human Hsp90α came out at 1.1 µM. The IC50 in the assay on SKBr3 cells (setting [1]) is over 5000 nM.

For `CO[C@H]1/C=C\C=C(/C)C(=O)NC2=CC(=O)C(NCC[N+](C)(C)[O-])=C(C[C@@H](C)C[C@H](OC)[C@H](O)[C@@H](C)/C=C(\C)[C@@H]1OC(N)=O)C2=O` [Compound 4, [2-(17-demethoxygeldanamycin-17-ylamino)-ethyl]dimethylamine N-oxide], the dissociation constant Kd on human Hsp90α worked out at 0.6 µM. Besides, in the assay with SKBr3 cells (setting [1]), the IC50 was over 1000 nM.

On to `CO[C@H]1/C=C\C=C(/C)C(=O)NC2=CC(=O)C(NCC[N+](C)(C)C)=C(C[C@@H](C)C[C@H](OC)[C@H](O)[C@@H](C)/C=C(\C)[C@@H]1OC(N)=O)C2=O` [Compound 3, {[2-(17-demethoxygeldanamycin-17-yl)amino]ethyl}trimethylammonium chloride], for which, at human Hsp90α, the Kd is 0.3 µM. In the assay with SKBr3 cells (setting [1]), the IC50 is over 1000 nM.

For the compound `CO[C@H]1/C=C\C=C(/C)C(=O)NC2=CC(=O)C(NC[C@@H]3OC(O)[C@@H](O)[C@H](O)[C@H]3O)=C(C[C@@H](C)C[C@H](OC)[C@H](O)[C@@H](C)/C=C(\C)[C@@H]1OC(N)=O)C2=O` (stereo partly shown) [Compound 2, 17-(glucos-6-amino)-17-demethoxygeldanamycin], the Kd on human Hsp90α was 0.2 µM. The IC50 with SKBr3 cells (setting [1]) was determined as 5300 nM.

`CO[C@H]1/C=C\C=C(/C)C(=O)NC2=CC(=O)C(NCCOCCOCCNC(=O)CCCC[C@@H]3SC[C@@H]4NC(=O)N[C@@H]43)=C(C[C@@H](C)C[C@H](OC)[C@H](O)[C@@H](C)/C=C(\C)[C@@H]1OC(N)=O)C2=O` [Compound 5]: in the assay with SKBr3 cells (setting [1]), the IC50 was over 1000 nM.

In the case of `C=CCNC1=C2C[C@@H](C)C[C@H](OC)[C@H](O)[C@@H](C)/C=C(\C)[C@H](OC(N)=O)[C@@H](OC)/C=C\C=C(/C)C(=O)NC(=CC1=O)C2=O` [Compound 17-AAG, 17-allylamino-17-demethoxy-geldanamycin, reference compound], in the assay with SKBr3 cells (Homo sapiens, SK-BR-3, 72 h), the IC50 is 38 nM.

Consider `CO[C@H]1/C=C\C=C(/C)C(=O)NC2=CC(=O)C(NCCOCCOCCOCCNC(=O)CCCC[C@@H]3SC[C@@H]4NC(=O)N[C@@H]43)=C(C[C@@H](C)C[C@H](OC)[C@H](O)[C@@H](C)/C=C(\C)[C@@H]1OC(N)=O)C2=O` [Compound 6], for which the Kd at human Hsp90α was 1.1 µM. Besides, in the assay with SKBr3 cells (setting [1]), the IC50 was over 1000 nM.

On to `CO[C@H]1/C=C\C=C(/C)C(=O)NC2=CC(=O)C(NCCCCP(=O)(O)O)=C(C[C@@H](C)C[C@H](OC)[C@H](O)[C@@H](C)/C=C(\C)[C@@H]1OC(N)=O)C2=O` [Compound 10], for which the IC50 in the assay with SKBr3 cells (Homo sapiens, SK-BR-3, 72 h) was about 2000 nM.

As for `CO[C@H]1/C=C\C=C(/C)C(=O)NC2=CC(=O)C(N[C@@H]3C(O)O[C@@H](CO)[C@H](O)[C@H]3O)=C(C[C@@H](C)C[C@H](OC)[C@H](O)[C@@H](C)/C=C(\C)[C@@H]1OC(N)=O)C2=O` (stereo partly shown) [Compound 1, 17-(glucos-2-amino)-17-demethoxygeldanamycin], the Kd at human Hsp90α was found to be 0.5 µM. Besides, the IC50 with SKBr3 cells (setting [1]) is 1200 nM.

The term pKd denotes −log10 of the Kd, conventionally taken in molar units. At human Hsp90α, `CO[C@H]1/C=C\C=C(/C)C(=O)NC2=CC(=O)C(NCCP(=O)(O)O)=C(C[C@@H](C)C[C@H](OC)[C@H](O)[C@@H](C)/C=C(\C)[C@@H]1OC(N)=O)C2=O` [Compound 8] gave a pKd of 6.22. The half-inhibitory concentration (IC50) in the assay on SKBr3 cells (Homo sapiens, SK-BR-3, 72 h) is about 3000 nM.

Compound `CO[C@H]1/C=C\C=C(/C)C(=O)NC2=CC(=O)C(NCCCP(=O)(O)O)=C(C[C@@H](C)C[C@H](OC)[C@H](O)[C@@H](C)/C=C(\C)[C@@H]1OC(N)=O)C2=O` [Compound 9] showed a pKd at human Hsp90α of 6.05. Further, the IC50 with SKBr3 cells (Homo sapiens, SK-BR-3, 72 h) was about 1000 nM.

For the origin of these results see patent US7378407B2, “Geldanamycin compounds and method of use” (Kosan Biosciences Incorporated, priority 2004, dated 2008).
